For this series the following is noted: for aqueous solubility: pH 6.8.

The structures appear in SMILES notation. Values after ≈ are worked out from the molar mass of the structure shown.

Regarding `Cn1cc(-c2ccc(-c3cncc(Cl)c3N3CCC4(CCNC4=O)CC3)cc2)cn1`, the MDR1-MDCK efflux ratio was determined as 61.1; the intrinsic clearance, human liver microsomes came to 65.7 mL/min/kg; the intrinsic clearance, rat liver microsomes came out at 308 mL/min/kg; the aqueous solubility (commonly how much of the substance goes into solution per volume) was determined as 3.11 µg/mL (≈ 7.37 µM).
For `CN(C(=O)c1cccc(C(=O)O)c1)c1ccccc1`, the intrinsic clearance, human liver microsomes was no more than 4.74 mL/min/kg and the intrinsic clearance, rat liver microsomes is no more than 10.7 mL/min/kg.
Turning to `O=C(CN1CCSC1=O)Nc1ccccc1F`, the MDR1-MDCK efflux ratio is 0.739; the intrinsic clearance, human liver microsomes is no more than 4.74 mL/min/kg; the intrinsic clearance, rat liver microsomes was no more than 10.7 mL/min/kg; the aqueous solubility amounted to 31.6 µg/mL (≈ 124 µM).
As for `NC(=O)c1csc(CN2CCc3cc(F)ccc3C2)c1`, the MDR1-MDCK efflux ratio stood at 0.686; the intrinsic clearance, human liver microsomes worked out at 5.46 mL/min/kg; the intrinsic clearance, rat liver microsomes was 252 mL/min/kg.
With `N#Cc1cccc(-c2ccc3[nH]ccc3c2)n1`, the MDR1-MDCK efflux ratio was 0.528; the intrinsic clearance, human liver microsomes stood at 299 mL/min/kg; the intrinsic clearance, rat liver microsomes amounted to 657 mL/min/kg; the aqueous solubility came out at 3.65 µg/mL (≈ 16.6 µM).
Turning to `Oc1c(C(c2ccc(F)cc2)N2CCCCC2)ccc2cccnc12` (centres undefined), the intrinsic clearance, human liver microsomes amounted to 35.1 mL/min/kg and the intrinsic clearance, rat liver microsomes amounted to 382 mL/min/kg.
Consider `O=C1Nc2ccccc2O[C@H]2C[C@@H]1N(CC1CC1)C2`, for which the MDR1-MDCK efflux ratio turned out to be 0.851; the intrinsic clearance, human liver microsomes stood at 14.5 mL/min/kg; the intrinsic clearance, rat liver microsomes was determined as 377 mL/min/kg; the aqueous solubility is 42.1 µg/mL (≈ 163 µM).
Turning to `COc1cc(-c2ccc(C)s2)cc2c1OCCN(c1noc(C)n1)C2`, the intrinsic clearance, human liver microsomes came to 57.4 mL/min/kg; the intrinsic clearance, rat liver microsomes amounted to 940 mL/min/kg; the aqueous solubility is 3.01 µg/mL (≈ 8.42 µM).
In the case of `Cc1ccccc1N(CC(=O)N(C)C)S(C)(=O)=O`, the MDR1-MDCK efflux ratio came out at 2; the intrinsic clearance, human liver microsomes was 6.35 mL/min/kg; the intrinsic clearance, rat liver microsomes turned out to be 553 mL/min/kg; the aqueous solubility was found to be 46.7 µg/mL (≈ 173 µM).
As for `O=C(CCOc1ccccc1)N1CCCC(c2n[nH]cc2-c2ccc(Cl)cc2)C1` (centres undefined), the MDR1-MDCK efflux ratio turned out to be 4.26 and the aqueous solubility was found to be 0.8 µg/mL (≈ 1.95 µM).
Turning to `Cc1cc(N(C)C)nc(N(C)Cc2csc(C)n2)n1`, the MDR1-MDCK efflux ratio stood at 0.632; the intrinsic clearance, human liver microsomes was found to be 30.6 mL/min/kg; the intrinsic clearance, rat liver microsomes amounted to 681 mL/min/kg; the aqueous solubility was 47.4 µg/mL (≈ 171 µM).
For the compound `COc1cc(C)cc(OC)c1-c1ccc(-c2nn[nH]n2)cc1`, the MDR1-MDCK efflux ratio is 1.97; the intrinsic clearance, human liver microsomes is no more than 4.74 mL/min/kg; the intrinsic clearance, rat liver microsomes is 83.2 mL/min/kg.
The corresponding values for `CCCNC(=O)C1(NCc2cncnc2)CCCCC1` are 7.46, 43.2 mL/min/kg and 127 mL/min/kg.
Consider `COc1cc(F)c(NCC(=O)Nc2ccc(C)cc2)cc1OC`, for which the MDR1-MDCK efflux ratio came to 0.669; the intrinsic clearance, human liver microsomes is 31.7 mL/min/kg; the intrinsic clearance, rat liver microsomes amounted to 269 mL/min/kg; the aqueous solubility came to 47.6 µg/mL (≈ 150 µM).
The compound `CN(C)[C@@H]1CN(C(=O)COc2ccccc2)C[C@H]1O` yielded an intrinsic clearance, human liver microsomes of no more than 4.74 mL/min/kg; an intrinsic clearance, rat liver microsomes of 17.6 mL/min/kg; an aqueous solubility of 83.3 µg/mL (≈ 315 µM).
In the case of `CCc1ccc2nc(C)cc(C(=O)N3CC(c4cccnc4)C3)c2c1`, the MDR1-MDCK efflux ratio was determined as 11.2; the intrinsic clearance, human liver microsomes is 143 mL/min/kg; the intrinsic clearance, rat liver microsomes stood at 656 mL/min/kg; the aqueous solubility was determined as 39.3 µg/mL (≈ 119 µM).
Take `c1cncc(-c2nnc3n2[C@H]2CN(Cc4cccs4)C[C@H]2CC3)c1`: the MDR1-MDCK efflux ratio came to 2.69; the intrinsic clearance, human liver microsomes turned out to be 7.21 mL/min/kg; the intrinsic clearance, rat liver microsomes turned out to be 343 mL/min/kg.
As for `COCC1(CNS(=O)(=O)c2ccc3[nH]cnc3c2)CCC1`, the MDR1-MDCK efflux ratio turned out to be 32.8; the intrinsic clearance, human liver microsomes stood at 16.2 mL/min/kg; the intrinsic clearance, rat liver microsomes was found to be 860 mL/min/kg.
The corresponding values for `O=c1oc2cccnc2n1Cc1ncc(-c2ccc(F)cc2)o1` are 2.86, no more than 4.74 mL/min/kg and no more than 10.7 mL/min/kg.
Consider `CC1(C)COCCN1Cc1cnn(-c2ccccc2)n1`, for which the MDR1-MDCK efflux ratio worked out at 0.545; the intrinsic clearance, human liver microsomes amounted to 10.7 mL/min/kg; the intrinsic clearance, rat liver microsomes came to 1070 mL/min/kg; the aqueous solubility worked out at 14.7 µg/mL (≈ 54.1 µM).
Regarding `CN(C)CC(=O)N1CCC(c2ccc(NC(=O)c3nc(C#N)c[nH]3)c(C3=CCCCC3)c2)CC1`, the MDR1-MDCK efflux ratio was 42.6; the intrinsic clearance, human liver microsomes turned out to be 12.4 mL/min/kg; the intrinsic clearance, rat liver microsomes was 56.3 mL/min/kg.
For the compound `Cc1cc2c(C(N)=O)cccc2n1-c1nc2c(c(NCc3ccccc3)n1)COCC2`, the aqueous solubility came out at 36.4 µg/mL (≈ 88 µM).
As for `CC(=O)NC[C@H]1C[C@]2(C)[C@@H](CCCC[C@]2(C)O)N1CC1(O)CCCCCC1`, the intrinsic clearance, human liver microsomes was found to be 51.2 mL/min/kg and the intrinsic clearance, rat liver microsomes is 587 mL/min/kg.
For `Cc1cnc(NC(=O)Cc2coc3cc(C)c(C)cc23)s1`, the aqueous solubility is 0.32 µg/mL (≈ 1.07 µM).
With `Cn1nccc1C(=O)C1CCN(C(=O)c2cc(C(C)(C)C)nn2C)CC1`, the intrinsic clearance, human liver microsomes is no more than 4.74 mL/min/kg and the intrinsic clearance, rat liver microsomes was 97.9 mL/min/kg.
With `O=C(Nc1ccccn1)c1ccc2c(c1)C(=O)N(C1CCCCC1)C2=O`, the MDR1-MDCK efflux ratio came out at 0.393; the intrinsic clearance, human liver microsomes was determined as 11.8 mL/min/kg; the intrinsic clearance, rat liver microsomes worked out at 791 mL/min/kg.
Take `CC(C)C(=O)N1CCC(Nc2ncnc3ccsc23)CC1`: the MDR1-MDCK efflux ratio was found to be 6.55; the intrinsic clearance, human liver microsomes is no more than 4.74 mL/min/kg; the intrinsic clearance, rat liver microsomes stood at 19.2 mL/min/kg; the aqueous solubility turned out to be 48 µg/mL (≈ 158 µM).
On to `Cc1ccc(-c2ccnc(N3C[C@@H](C)NC[C@@H]3C)n2)c(C)n1`, for which the MDR1-MDCK efflux ratio is 25.7; the intrinsic clearance, human liver microsomes is no more than 4.74 mL/min/kg; the intrinsic clearance, rat liver microsomes is 78.7 mL/min/kg; the aqueous solubility came to 25.9 µg/mL (≈ 87.2 µM).
On to `CC(C)OC(=O)N1CCC(Oc2ncnc3c2cnn3-c2ccc(S(C)(=O)=O)cc2F)CC1`, for which the MDR1-MDCK efflux ratio was 1.61.
For `CN1CCC(CNc2ccc3ncc(-c4cccc(OC(F)(F)F)c4)n3n2)CC1`, the intrinsic clearance, human liver microsomes came to 90.9 mL/min/kg and the intrinsic clearance, rat liver microsomes was 365 mL/min/kg.
For `CN1CCC(Cc2cccc(-c3nccs3)n2)C1` (centres undefined), the MDR1-MDCK efflux ratio was found to be 1.16; the intrinsic clearance, human liver microsomes was 43 mL/min/kg; the intrinsic clearance, rat liver microsomes was 2030 mL/min/kg.
As to `COc1ccccc1OC1CCN(Cc2ccccc2C#N)CC1`, the MDR1-MDCK efflux ratio came out at 0.557; the intrinsic clearance, human liver microsomes was 220 mL/min/kg; the intrinsic clearance, rat liver microsomes was found to be 1510 mL/min/kg; the aqueous solubility is 41.1 µg/mL (≈ 127 µM).
`Nc1ncc(-c2cccc(C(F)(F)F)c2)c(C2CCCCN2C(=O)c2ccccc2)n1` (centres undefined): the MDR1-MDCK efflux ratio came to 1.93; the fraction unbound, human plasma amounted to 0.00903; the fraction unbound, rat plasma was found to be 0.0137; the intrinsic clearance, human liver microsomes worked out at 380 mL/min/kg. This compound returned an intrinsic clearance, rat liver microsomes of 1510 mL/min/kg and an aqueous solubility of 25.1 µg/mL (≈ 58.9 µM).
`O=C(CCn1cc(Br)cn1)Nc1nc2ccccc2n1CCN1CCOCC1` showed an aqueous solubility of 42.3 µg/mL (≈ 94.6 µM).
Regarding `CCOCC(=O)N1CCC2(CCc3ccccc3O2)CC1`, the MDR1-MDCK efflux ratio is 0.732; the intrinsic clearance, human liver microsomes worked out at 10.3 mL/min/kg; the intrinsic clearance, rat liver microsomes worked out at 818 mL/min/kg; the aqueous solubility was 34.1 µg/mL (≈ 118 µM).
On to `COC(=O)[C@@H]1C[C@H](O)CN1CC#Cc1ccc(Cl)cc1`, for which the MDR1-MDCK efflux ratio amounted to 0.681 and the aqueous solubility stood at 31.8 µg/mL (≈ 108 µM).
Regarding `COCC(=O)N1CCC(Cc2ccccc2-c2cccc(F)c2)(C(=O)NC(C)C)CC1`, the MDR1-MDCK efflux ratio stood at 33.1; the fraction unbound, human plasma stood at 0.0395; the fraction unbound, rat plasma came to 0.119; the intrinsic clearance, human liver microsomes came to 149 mL/min/kg. This compound displayed an intrinsic clearance, rat liver microsomes of 572 mL/min/kg.
`Cc1cnn(CC2CC2)c1NC(=O)/C=C/c1ccccc1`: the MDR1-MDCK efflux ratio came out at 2.67; the intrinsic clearance, human liver microsomes stood at 13.8 mL/min/kg; the intrinsic clearance, rat liver microsomes amounted to 318 mL/min/kg; the aqueous solubility worked out at 32.7 µg/mL (≈ 116 µM).
With `O=C(Nc1nc2ccccc2[nH]1)C1CC(=O)N(c2cccc(C(F)(F)F)c2)C1` (centres undefined), the aqueous solubility came out at 0.82 µg/mL (≈ 2.11 µM).
As to `Cc1ccc(C)c(OCC(=O)N2CCC(C(=O)Nc3ccccc3)CC2)c1`, the MDR1-MDCK efflux ratio came to 2.86; the intrinsic clearance, human liver microsomes was 302 mL/min/kg; the intrinsic clearance, rat liver microsomes worked out at 1390 mL/min/kg; the aqueous solubility worked out at 3.37 µg/mL (≈ 9.2 µM).
`COc1cncc(-c2ccnc3[nH]ccc23)c1`: the MDR1-MDCK efflux ratio amounted to 0.671; the intrinsic clearance, human liver microsomes came to 67.1 mL/min/kg; the intrinsic clearance, rat liver microsomes was 105 mL/min/kg; the aqueous solubility was determined as 24 µg/mL (≈ 107 µM).
`O=C(Nc1nc2ccccc2[nH]1)C1CC1c1ccccc1` (centres undefined) displayed an aqueous solubility of 1.1 µg/mL (≈ 3.97 µM).
Turning to `Cc1ccc(-n2cc(C(=O)NCCN(C)C)nn2)cc1C`, the MDR1-MDCK efflux ratio is 3.18; the intrinsic clearance, human liver microsomes was no more than 4.74 mL/min/kg; the intrinsic clearance, rat liver microsomes came to 189 mL/min/kg; the aqueous solubility was determined as 28.4 µg/mL (≈ 98.9 µM).
`COc1cccc(-c2ocnc2C(=O)Nc2ccc(-c3ccc(C)o3)cc2)c1`: the aqueous solubility came out at 0.4 µg/mL (≈ 1.07 µM).
As to `Fc1cccc(N2CCCC2)c1CN1CCN(Cc2ccon2)CC1`, the MDR1-MDCK efflux ratio stood at 0.64; the intrinsic clearance, human liver microsomes amounted to 60.6 mL/min/kg; the intrinsic clearance, rat liver microsomes worked out at 3460 mL/min/kg.
Consider `Cc1nc(O)cc(C2CN(C3CCCCC3)C2)n1`, for which the MDR1-MDCK efflux ratio turned out to be 16.5; the intrinsic clearance, human liver microsomes is no more than 4.74 mL/min/kg; the intrinsic clearance, rat liver microsomes was no more than 10.7 mL/min/kg; the aqueous solubility worked out at 41.4 µg/mL (≈ 167 µM).
Compound `Oc1ccccc1NCc1ccccn1` returned an intrinsic clearance, human liver microsomes of 24.9 mL/min/kg; an intrinsic clearance, rat liver microsomes of 600 mL/min/kg; an aqueous solubility of 44.1 µg/mL (≈ 220 µM).
For `Cc1nc(C2(NCc3cccc(C#N)c3)CCCC2)no1`, the MDR1-MDCK efflux ratio was 0.681; the intrinsic clearance, human liver microsomes is 13.3 mL/min/kg; the intrinsic clearance, rat liver microsomes stood at 505 mL/min/kg; the aqueous solubility was 47.6 µg/mL (≈ 169 µM).
Compound `CCOc1cc(N2CCc3nc[nH]c3C2)ncn1` showed an intrinsic clearance, human liver microsomes of no more than 4.74 mL/min/kg and an intrinsic clearance, rat liver microsomes of 77.8 mL/min/kg.

(Values after the Biogen ADME set (Fang et al. 2023).)
